# Data reported in PubChem BioAssay AID1963825 (Molecular Pharmacology Branch, DTP, NCI, 2024).
# Values joined by “and” are separate entries in the source; they are usually repeats but may differ in a detail not shown here. Equal values may be shown once.
# Assay: Anticancer human tumor 997537-175-T-J1-PDC patient-derived colon adenocarcinoma cell line growth inhibition [POLQ]
# Settings: 997537-175-T-J1-PDC complex spheroid viability, combination with POLQ inhibitors; for viability, T/C: stronger effect = lower value
# Procedure: Multicellular complex tumor spheroid response to Polymerase (POL) inhibitors (novobiocin, ART-558, RP6685) in combination with a variety of drugs and investigational agents in selected tumor cell lines
# The POL inhibitors (novobiocin, ART-558, and RP6685) were evaluated both individually and in combination with standard of care and investigational anticancer small molecules within a complex spheroid model of solid tumors. . Complex spheroids include a stromal component modeled by human endothelial cells (HUVEC) and fibroblasts modeled by human mesenchymal stem cells (MSCs). The concentration ranges selected for each drug and investigational agent were based upon clinically achievable concentrations if the clinical Cmax of the agent was known.
# Compounds. The drugs and investigational agents: novobiocin (NSC847541), ART-558 (NSC835418), RP-6685 (NSC848927), peposertib (NSC802822), ceralasertib (NSC780249), elimusertib (NSC800525), camonsertib (NSC841442), AZD-1390 (NSC803789), olaparib (NSC753686), talazoparib (NSC767125), rucaparib (NSC756644), sotorasib (NSC818433), MRTX-1133 (NSC836407), SN-38 (NSC673596), topotecan (NSC609699), epotoside (NSC141540), doxorubicin (NSC123127), gemcitabine (NSC613327), 5-fluorouracil (NSC19893), paclitaxel (NSC125973), vemurafenib (NSC761431), MSA-2 (NSC828583), SN-011 (NSC837082), adavosertib (NSC754352), prexasertib (NSC758257), carboplatin (NSC241240) and oxaliplatin (NSC266046), were obtained from the National Cancer Institute (NCI) Developmental Therapeutics Program Chemical Repository (21). The FDA-approved anticancer drug set is available from the Developmental Therapeutics Program at https://dtp.cancer.gov/organization/dscb/obtaining/. […] The stock solutions were prepared in dimethyl sulfoxide (DMSO, Sigma-Aldrich, St. Louis, MO, cat. D2650), except for the platinum compounds which were prepared in saline (Quality Biological, Gaithersburg, MD, cat. 114-055-101), at 800-fold the tested concentration and stored at -70 degrees C prior to their use. All drugs and investigational agents were tested over a range starting from a high concentration at or near the clinical Cmax and decreasing in half-log increments. If the clinical Cmax for an agent had not been determined, the highest concentration tested was 10 microM, except for SN-38, which was tested at a high concentration of 1 microM.
# Cell Culture. All cells were maintained in an incubator at 37 degrees C and 5% CO2 with 95% humidity. The PDC lines were cultured according to standard operating procedures established by the NCI PDMR (https://pdmr.cancer.gov). Table 3 of the manuscript, lists the cell lines along with the number of the three cell types plated to form the mct-spheroids and media for tumor cell growth. After thawing, all PDC lines, except 997537-175-T-J1-PDC and 415267-285-R-J2-PDC, were cultured in Matrigel-coated flasks prepared with a working solution of 1X Ham's F-12 nutrient mix, without supplementation (Thermo Fisher Scientific, cat. 11765054), 100 U/mL penicillin-streptomycin (Thermo Fisher Scientific, cat. 15140122), and 2.5% Matrigel (Corning Inc., Corning, NY, cat. 354248) for the first three passages. The two PDC lines 997537-175-T-J1-PDC and 415267-285-R-J2-PDC were cultured on uncoated flasks. The 857933-349-R-J2-PDC line was cultured in 6C/Colon 1B media containing advanced DMEM/F-12 (Thermo Fisher Scientific, cat. 12634028), 10 mM HEPES (Thermo Fisher Scientific, cat. 15630080), 1X GlutaMAX supplement (Thermo Fisher Scientific, cat. 35050061), 0.1 mg/mL primocin (InvivoGen, San Diego, CA, cat. ant-pm-2), 10% defined fetal bovine serum, heat inactivated (HyClone Laboratories Inc., Logan, UT, cat. SH30070.03HI), 50% L-WRN conditioned media (ATCC, cat. CRL-3276), 1.25 mM N-Acetyl-L-cysteine (Sigma-Aldrich, cat. A9165), 10 mM nicotinamide (Sigma-Aldrich, cat. N0636), 1X B-27 supplement (Thermo Fisher Scientific, cat. 17504044), 1X N-2 supplement (Thermo Fisher Scientific, cat. […]
# 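Also: luminescence signal used as a surrogate for viable cells; spheroids exposed to drugs for seven days before readout.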
smiles,measurement,setting,value
CNCc1ccc(-c2[nH]c3cc(F)cc4c3c2CCNC4=O)cc1 + Cc1cccc(N(C)C(=O)C2C(O)CCN2c2nc(C)cc(C(F)(F)F)c2C#N)c1,IC50,"curve of first compound, second compound 0.0316 µM",> 10 µM
same,IC50,"curve of first compound, second compound 0.1 µM",> 10 µM
same,IC50,"curve of first compound, second compound 0.316 µM",> 10 µM
same,IC50,"curve of first compound, second compound 1 µM",> 10 µM
same,IC50,"curve of first compound, second compound 3.16 µM",> 10 µM
same,IC50,"curve of first compound, second compound 10 µM",> 10 µM
same,"viability, T/C","second compound 0.0316 µM, first compound 0.0316 µM",94.7%
same,"viability, T/C","second compound 0.0316 µM, first compound 0.1 µM",114%
same,"viability, T/C","second compound 0.0316 µM, first compound 0.316 µM",81.6%
same,"viability, T/C","second compound 0.0316 µM, first compound 1 µM",87.9%
same,"viability, T/C","second compound 0.0316 µM, first compound 3.16 µM",109%
same,"viability, T/C","second compound 0.0316 µM, first compound 10 µM",85.3%
same,"viability, T/C","second compound 0.1 µM, first compound 0.0316 µM",119%
same,"viability, T/C","second compound 0.1 µM, first compound 0.1 µM",94.2%
same,"viability, T/C","second compound 0.1 µM, first compound 0.316 µM",103%
same,"viability, T/C","second compound 0.1 µM, first compound 1 µM",104%
same,"viability, T/C","second compound 0.1 µM, first compound 3.16 µM",101%
same,"viability, T/C","second compound 0.1 µM, first compound 10 µM",121%
same,"viability, T/C","second compound 0.316 µM, first compound 0.0316 µM",105%
same,"viability, T/C","second compound 0.316 µM, first compound 0.1 µM",103%
same,"viability, T/C","second compound 0.316 µM, first compound 0.316 µM",99.5%
same,"viability, T/C","second compound 0.316 µM, first compound 1 µM",102%
same,"viability, T/C","second compound 0.316 µM, first compound 3.16 µM",119%
same,"viability, T/C","second compound 0.316 µM, first compound 10 µM",89.5%
same,"viability, T/C","second compound 1 µM, first compound 0.0316 µM",92.4%
same,"viability, T/C","second compound 1 µM, first compound 0.1 µM",113%
same,"viability, T/C","second compound 1 µM, first compound 0.316 µM",99%
same,"viability, T/C","second compound 1 µM, first compound 1 µM",86.3%
same,"viability, T/C","second compound 1 µM, first compound 3.16 µM",99.8%
same,"viability, T/C","second compound 1 µM, first compound 10 µM",90.2%
same,"viability, T/C","second compound 3.16 µM, first compound 0.0316 µM",116%
same,"viability, T/C","second compound 3.16 µM, first compound 0.1 µM",84.8%
same,"viability, T/C","second compound 3.16 µM, first compound 0.316 µM",99.8%
same,"viability, T/C","second compound 3.16 µM, first compound 1 µM",117%
same,"viability, T/C","second compound 3.16 µM, first compound 3.16 µM",82.1%
same,"viability, T/C","second compound 3.16 µM, first compound 10 µM",96.9%
same,"viability, T/C","second compound 10 µM, first compound 0.0316 µM",103%
same,"viability, T/C","second compound 10 µM, first compound 0.1 µM",112%
same,"viability, T/C","second compound 10 µM, first compound 0.316 µM",94.2%
same,"viability, T/C","second compound 10 µM, first compound 1 µM",101%
same,"viability, T/C","second compound 10 µM, first compound 3.16 µM",95.5%
same,"viability, T/C","second compound 10 µM, first compound 10 µM",89.4%
CC1COCCN1c1cc(C2(O)CC3CCC(C2)O3)c2cnn(-c3ccn[nH]3)c2n1 (stereo unspecified),"viability, T/C",compound 0.0316 µM,80.8% and 88.2% and 99.8%
same,"viability, T/C",compound 0.1 µM,88.8% and 81.9% and 65.3%
same,"viability, T/C",compound 0.316 µM,57.4% and 42.1% and 58.8%
same,"viability, T/C",compound 1 µM,49% and 58.5% and 56.2%
same,"viability, T/C",compound 3.16 µM,61.2% and 67.5% and 61.5%
same,"viability, T/C",compound 10 µM,62.1% and 47.6% and 48.3%
same,IC50,curve of compound,> 10 µM
CC(=O)O[C@H]1C(=O)[C@@]2(C)[C@H]([C@H](OC(=O)c3ccccc3)[C@]3(O)C[C@H](OC(=O)[C@H](O)[C@@H](NC(=O)c4ccccc4)c4ccccc4)C(C)=C1C3(C)C)[C@]1(OC(C)=O)CO[C@@H]1C[C@@H]2O,"viability, T/C",compound 0.00949 µM,55.5% and 66.9% and 49.9%
same,"viability, T/C",compound 0.03 µM,33.4% and 42.3% and 41.3%
same,"viability, T/C",compound 0.0949 µM,22.8% and 35.5% and 38.7%
same,"viability, T/C",compound 0.3 µM,32.1% and 41.2% and 22.7%
same,"viability, T/C",compound 0.949 µM,32% and 28.6% and 22%
same,"viability, T/C",compound 3 µM,30.9% and 40.5% and 33.2%
same,IC50,curve of compound,0.0125 µM and 0.0207 µM and < 0.00949 µM
